We go through 2 molecules from article PMC12655527, “An Investigational Study on the Role of ADME Agents’ Genetic Variation on DD217 Pharmacokinetics and Safety Profile” (Pharmaceuticals, 2025).

The test system of data set [1] is patients undergoing knee replacement surgery. The data set can be described thus: Bleeding events during 14-day therapy, phase II trial. The data set is classed as in vivo, human. The source says: (§1) The design, eligibility criteria, and outcomes of the phase II clinical trial evaluating the safety and tolerability of DD217 (NCT05189002, ClinicalTrials.gov) have been described previously. Briefly, this was a multicenter, double-blind, randomized, prospective phase II study designed to determine the optimal dosing regimen and to assess the safety and efficacy of DD217 for the prevention of venous thromboembolism (VTE) in patients undergoing knee replacement surgery. Patients were randomized into one of three groups: two groups received oral DD217 at doses of 40 mg or 60 mg once daily, starting on the morning of the first postoperative day, and one group received the active comparator, dalteparin sodium. The treatment duration was 14 days.
(§2) In total, seven cases of DVT/PE were documented during the trial: four in the DD217 40 mg/day group, one in the DD217 60 mg/day group, and two in the dalteparin sodium group. In addition, two bleeding events were recorded: one clinically relevant non-major bleed in the DD217 60 mg/day group and one clinically non-relevant minor bleed in the dalteparin sodium group.

For data set [2] the test system is unchanged. Briefly: Thromboembolic complications (DVT/PE) during 14-day therapy, phase II trial. Conditions: 14 days. The data set is classed as in vivo, human.
Text: as §1, §2

The subject of another data set is CYP. Set-up: method as in DrugBank. Betrixaban (DB12364). Conditions: ref DrugBank. Betrixaban (DB12364); cited from earlier work.
The test system of the next data set is P-glycoprotein (ABCB1). Set-up: method as in earlier work. The settings on record: cited from earlier work.

For dalteparin sodium [reference compound], the bleeding events result in data set [1] (dalteparin sodium group, clinically non-relevant minor bleed) was “one”. Moreover, the “Bleeding, n (safety outcomes)” value in data set [1] (dalteparin sodium, 14 days, of 18 patients) is 1 n. Further, in data set [2] (dalteparin sodium group (18 patients)), the “cases of DVT/PE” value is given as “two”. In addition, in data set [2] (dalteparin sodium, of 18 patients), the “PE/DVT, n (safety outcomes)” value is listed as 2 n.

For `COc1ccc(NC(=O)c2ccc(C(=N)N(C)C)cc2)c(C(=O)Nc2ccc(Cl)cn2)c1` [Betrixaban], in the data set on CYP, the “share of metabolism via CYP” value is reported as < 1%. In addition, in the data set with P-glycoprotein (ABCB1), the “P-glycoprotein (ABCB1) substrate status” value is on record as “P-glycoprotein (ABCB1) substrate”.
